Assay results from ChEMBL document CHEMBL5724914, “Linking interpersonal differences in gut microbiota composition and drug biotransformation activity” (2024).

Conditions: human gut metagenome, 24 h, 2 µM
Note: call rule not given here.

Row | Bacterial Biotransformation | Compound
1 | Compound NOT metabolized | O=C1[C@H](CC[C@H](O)c2ccc(F)cc2)[C@@H](c2ccc(O)cc2)N1c1ccc(F)cc1 [EZETIMIBE]
2 | Compound NOT metabolized | CCN(CC)CCNC(C(=O)OCCC(C)C)c1ccccc1.Cl.Cl (stereo not given)

Conditions: human gut metagenome, 24 h, 2 µM
Remark: another data set of the same source

Row | Bacterial Biotransformation | Compound
3 | Compound NOT metabolized | O=C1[C@H](CC[C@H](O)c2ccc(F)cc2)[C@@H](c2ccc(O)cc2)N1c1ccc(F)cc1 [EZETIMIBE]
4 | Compound metabolized | CCN(CC)CCNC(C(=O)OCCC(C)C)c1ccccc1.Cl.Cl (stereo not given)

Experiment: (§1) The drug is tested on WLS-082 corresponding to human gut metagenome with ENA study accession number: PRJEB37062 and ENA sample accession number: ERS12561751 for biotransformation under anaerobic condition. The drug concentrations were measured over 9 timepoints collected between 0 and 24 hours of incubation by liquid-chromatography-coupled mass spectrometry (LC–MS)
Conditions: 2 µM

Row | Bacterial Biotransformation | Compound
5 | Compound metabolized | O=C1[C@H](CC[C@H](O)c2ccc(F)cc2)[C@@H](c2ccc(O)cc2)N1c1ccc(F)cc1 [EZETIMIBE]
6 | Compound metabolized | CCN(CC)CCNC(C(=O)OCCC(C)C)c1ccccc1.Cl.Cl (stereo not given)

Conditions: human gut metagenome, 24 h, 2 µM
Remark: another data set of the same source

Row | Bacterial Biotransformation | Compound
7 | Compound NOT metabolized | O=C1[C@H](CC[C@H](O)c2ccc(F)cc2)[C@@H](c2ccc(O)cc2)N1c1ccc(F)cc1 [EZETIMIBE]
8 | Compound metabolized | CCN(CC)CCNC(C(=O)OCCC(C)C)c1ccccc1.Cl.Cl (stereo not given)

Conditions: human gut metagenome, 24 h, 2 µM
Remark: another data set of the same source

Row | Bacterial Biotransformation | Compound
9 | Compound NOT metabolized | O=C1[C@H](CC[C@H](O)c2ccc(F)cc2)[C@@H](c2ccc(O)cc2)N1c1ccc(F)cc1 [EZETIMIBE]
10 | Compound metabolized | CCN(CC)CCNC(C(=O)OCCC(C)C)c1ccccc1.Cl.Cl (stereo not given)

Conditions: human gut metagenome, 24 h, 2 µM
Remark: another data set of the same source

Row | Bacterial Biotransformation | Compound
11 | Compound NOT metabolized | O=C1[C@H](CC[C@H](O)c2ccc(F)cc2)[C@@H](c2ccc(O)cc2)N1c1ccc(F)cc1 [EZETIMIBE]
12 | Compound metabolized | CCN(CC)CCNC(C(=O)OCCC(C)C)c1ccccc1.Cl.Cl (stereo not given)

Experiment: as §1, with “Z-009” for “WLS-082”, “pig” for “human”, “ERS12561809” for “ERS12561751”
Conditions: 2 µM

Row | Bacterial Biotransformation | Compound
13 | Compound NOT metabolized | O=C1[C@H](CC[C@H](O)c2ccc(F)cc2)[C@@H](c2ccc(O)cc2)N1c1ccc(F)cc1 [EZETIMIBE]
14 | Compound metabolized | CCN(CC)CCNC(C(=O)OCCC(C)C)c1ccccc1.Cl.Cl (stereo not given)

Conditions: human gut metagenome, 24 h, 2 µM
Remark: another data set of the same source

Row | Bacterial Biotransformation | Compound
15 | Compound metabolized | O=C1[C@H](CC[C@H](O)c2ccc(F)cc2)[C@@H](c2ccc(O)cc2)N1c1ccc(F)cc1 [EZETIMIBE]
16 | Compound metabolized | CCN(CC)CCNC(C(=O)OCCC(C)C)c1ccccc1.Cl.Cl (stereo not given)

Experiment: as §1, with “Z-013” for “WLS-082”, “rabbit” for “human”, “ERS12561813” for “ERS12561751”
Conditions: 2 µM

Row | Bacterial Biotransformation | Compound
17 | Compound NOT metabolized | O=C1[C@H](CC[C@H](O)c2ccc(F)cc2)[C@@H](c2ccc(O)cc2)N1c1ccc(F)cc1 [EZETIMIBE]
18 | Compound NOT metabolized | CCN(CC)CCNC(C(=O)OCCC(C)C)c1ccccc1.Cl.Cl (stereo not given)

Conditions: human gut metagenome, 24 h, 2 µM
Remark: another data set of the same source

Row | Bacterial Biotransformation | Compound
19 | Compound metabolized | O=C1[C@H](CC[C@H](O)c2ccc(F)cc2)[C@@H](c2ccc(O)cc2)N1c1ccc(F)cc1 [EZETIMIBE]
20 | Compound metabolized | CCN(CC)CCNC(C(=O)OCCC(C)C)c1ccccc1.Cl.Cl (stereo not given)

Experiment: as §1, with “Z-001” for “WLS-082”, “mouse” for “human”, “ERS12561801” for “ERS12561751”
Conditions: 2 µM

Row | Bacterial Biotransformation | Compound
21 | Compound NOT metabolized | O=C1[C@H](CC[C@H](O)c2ccc(F)cc2)[C@@H](c2ccc(O)cc2)N1c1ccc(F)cc1 [EZETIMIBE]
22 | Compound metabolized | CCN(CC)CCNC(C(=O)OCCC(C)C)c1ccccc1.Cl.Cl (stereo not given)

Experiment: as §1, with “Z-027” for “WLS-082”, “to” for “to human gut”, “ERS12561826” for “ERS12561751”
Conditions: 2 µM

Row | Bacterial Biotransformation | Compound
23 | Compound NOT metabolized | O=C1[C@H](CC[C@H](O)c2ccc(F)cc2)[C@@H](c2ccc(O)cc2)N1c1ccc(F)cc1 [EZETIMIBE]
24 | Compound NOT metabolized | CCN(CC)CCNC(C(=O)OCCC(C)C)c1ccccc1.Cl.Cl (stereo not given)

Experiment: as §1, with “Z-020” for “WLS-082”, “rabbit” for “human”, “ERS12561819” for “ERS12561751”
Conditions: 2 µM

Row | Bacterial Biotransformation | Compound
25 | Compound NOT metabolized | O=C1[C@H](CC[C@H](O)c2ccc(F)cc2)[C@@H](c2ccc(O)cc2)N1c1ccc(F)cc1 [EZETIMIBE]
26 | Compound metabolized | CCN(CC)CCNC(C(=O)OCCC(C)C)c1ccccc1.Cl.Cl (stereo not given)

Experiment: as §1, with “WLS-006” for “WLS-082”, “ERS12561741” for “ERS12561751”
Conditions: 2 µM

Row | Bacterial Biotransformation | Compound
27 | Compound metabolized | O=C1[C@H](CC[C@H](O)c2ccc(F)cc2)[C@@H](c2ccc(O)cc2)N1c1ccc(F)cc1 [EZETIMIBE]
28 | Compound metabolized | CCN(CC)CCNC(C(=O)OCCC(C)C)c1ccccc1.Cl.Cl (stereo not given)

Conditions: human gut metagenome, 24 h, 2 µM
Remark: another data set of the same source

Row | Bacterial Biotransformation | Compound
29 | Compound NOT metabolized | O=C1[C@H](CC[C@H](O)c2ccc(F)cc2)[C@@H](c2ccc(O)cc2)N1c1ccc(F)cc1 [EZETIMIBE]
30 | Compound metabolized | CCN(CC)CCNC(C(=O)OCCC(C)C)c1ccccc1.Cl.Cl (stereo not given)

Experiment: as §1, with “Z-007” for “WLS-082”, “rat” for “human”, “ERS12561807” for “ERS12561751”
Conditions: 2 µM

Row | Bacterial Biotransformation | Compound
31 | Compound NOT metabolized | O=C1[C@H](CC[C@H](O)c2ccc(F)cc2)[C@@H](c2ccc(O)cc2)N1c1ccc(F)cc1 [EZETIMIBE]
32 | Compound NOT metabolized | CCN(CC)CCNC(C(=O)OCCC(C)C)c1ccccc1.Cl.Cl (stereo not given)

Experiment: as §1, with “Z-028” for “WLS-082”, “mouse” for “human”, “ERS12561827” for “ERS12561751”
Conditions: 2 µM

Row | Bacterial Biotransformation | Compound
33 | Compound NOT metabolized | O=C1[C@H](CC[C@H](O)c2ccc(F)cc2)[C@@H](c2ccc(O)cc2)N1c1ccc(F)cc1 [EZETIMIBE]
34 | Compound NOT metabolized | CCN(CC)CCNC(C(=O)OCCC(C)C)c1ccccc1.Cl.Cl (stereo not given)

Conditions: human gut metagenome, 24 h, 2 µM
Remark: another data set of the same source

Row | Bacterial Biotransformation | Compound
35 | Compound NOT metabolized | O=C1[C@H](CC[C@H](O)c2ccc(F)cc2)[C@@H](c2ccc(O)cc2)N1c1ccc(F)cc1 [EZETIMIBE]
36 | Compound metabolized | CCN(CC)CCNC(C(=O)OCCC(C)C)c1ccccc1.Cl.Cl (stereo not given)

Conditions: human gut metagenome, 24 h, 2 µM
Remark: another data set of the same source

Row | Bacterial Biotransformation | Compound
37 | Compound NOT metabolized | O=C1[C@H](CC[C@H](O)c2ccc(F)cc2)[C@@H](c2ccc(O)cc2)N1c1ccc(F)cc1 [EZETIMIBE]
38 | Compound metabolized | CCN(CC)CCNC(C(=O)OCCC(C)C)c1ccccc1.Cl.Cl (stereo not given)

Experiment: as §1, with “Z-024” for “WLS-082”, “pig” for “human”, “ERS12561823” for “ERS12561751”
Conditions: 2 µM

Row | Bacterial Biotransformation | Compound
39 | Compound NOT metabolized | O=C1[C@H](CC[C@H](O)c2ccc(F)cc2)[C@@H](c2ccc(O)cc2)N1c1ccc(F)cc1 [EZETIMIBE]
40 | Compound metabolized | CCN(CC)CCNC(C(=O)OCCC(C)C)c1ccccc1.Cl.Cl (stereo not given)
